Assay results: ChEMBL document CHEMBL1212705, “Gene expression signatures and small-molecule compounds link a protein kinase to Plasmodium falciparum motility” (Nat Chem Biol, 2008)

Assays:
Plasmodium falciparum [1] = test: Antiplasmodial activity against Plasmodium falciparum 3D7 after 72 hrs by SYBR green assay; assay type: functional, organism-based; details: 3D7, 72 h
[2] = Inhibition of GST-fused Plasmodium falciparum recombinant CDPK1 expressed in Escherichia coli Rosetta 2 assessed as inhibition of [gamma-33P]ATP incorporation into substrate peptide by scintillation counting
Plasmodium falciparum [3] = test: Antiplasmodial activity against Plasmodium falciparum 3D7 by [3H]hypoxanthine incorporation assay; details: 3D7, 3 h

Structure (SMILES)	EC50 (Plasmodium falciparum [1])	IC50 [2]	EC50 (Plasmodium falciparum [3])
N[C@H]1CC[C@H](Nc2nc(Nc3ccc(C(=O)N4CCCCC4)cc3)c3ncn(-c4cccc(C(=O)O)c4)c3n2)CC1	> 10000 nM	71 nM	
N[C@H]1CC[C@H](Nc2nc(Nc3ccc(C(=O)N4CCCCC4)cc3)c3ncn(-c4ccc(C(=O)O)cc4)c3n2)CC1	> 10000 nM	28 nM	
C[C@@H]1CC[C@H]2[C@@H](C)C(=O)O[C@@H]3O[C@@]4(C)CC[C@@H]1[C@]32OO4 [ARTEMISININ]	28 nM		< 10 nM
O=C(c1ccc(Nc2nc(NCCCN3CCOCC3)nc3c2ncn3-c2ccccc2)cc1)N1CCCCC1	2990 nM	430 nM	
O=C(c1ccc(Nc2nc(NCCc3c[nH]cn3)nc3c2ncn3-c2cccc(Cl)c2)cc1)N1CCCCC1	352 nM	626 nM	
O=C(c1ccc(Nc2nc(N[C@H]3CC[C@H](O)CC3)nc3c2ncn3-c2cccc(F)c2)cc1)N1CCCCC1	> 10000 nM	150 nM	
CCN(CC)CCCC(C)Nc1ccnc2cc(Cl)ccc12 (configuration not stated) [CHLOROQUINE]			< 10 nM
O=C(c1ccc(Nc2nc(Nc3cnc4ccccc4c3)nc3c2ncn3-c2ccccc2)cc1)N1CCCCC1	101 nM	3850 nM	
CN1CCN(C(=O)c2cccc(Nc3nc(N[C@H]4CC[C@H](N)CC4)nc4c3ncn4-c3ccccc3)c2)CC1	1300 nM	6870 nM	
N[C@H]1CC[C@H](Nc2nc(Nc3ccc(CN4CCOCC4)cc3)c3ncn(-c4ccccc4)c3n2)CC1	174 nM	703 nM	
CCOc1ccc(-n2cnc3c(Nc4ccc(C(=O)N5CCCCC5)cc4)nc(N[C@H]4CC[C@H](N)CC4)nc32)cc1	535 nM	240 nM	
N[C@H]1CC[C@H](Nc2nc(Nc3ccc(C(=O)N4CCCCC4)cc3)c3ncn(-c4ccc5c(c4)OCO5)c3n2)CC1	400 nM	342 nM	
N[C@H]1CC[C@H](Nc2nc(Nc3ccc(C(=O)N4CCCCC4)cc3)c3ncn(-c4cccc(OCc5ccccc5)c4)c3n2)CC1	312 nM	4040 nM	
CC(C)(C)c1ccc(-n2cnc3c(Nc4ccc(C(=O)N5CCCCC5)cc4)nc(N[C@H]4CC[C@H](N)CC4)nc32)cc1	596 nM	3490 nM	
